Target: T1, human OX2R (Homo sapiens, UniProt O43614)
T1 construct: expressed in transfected cells; host or cells: CHO (Chinese hamster ovary) cells, grown under G418 selection
T1 sequence (O43614 1-444): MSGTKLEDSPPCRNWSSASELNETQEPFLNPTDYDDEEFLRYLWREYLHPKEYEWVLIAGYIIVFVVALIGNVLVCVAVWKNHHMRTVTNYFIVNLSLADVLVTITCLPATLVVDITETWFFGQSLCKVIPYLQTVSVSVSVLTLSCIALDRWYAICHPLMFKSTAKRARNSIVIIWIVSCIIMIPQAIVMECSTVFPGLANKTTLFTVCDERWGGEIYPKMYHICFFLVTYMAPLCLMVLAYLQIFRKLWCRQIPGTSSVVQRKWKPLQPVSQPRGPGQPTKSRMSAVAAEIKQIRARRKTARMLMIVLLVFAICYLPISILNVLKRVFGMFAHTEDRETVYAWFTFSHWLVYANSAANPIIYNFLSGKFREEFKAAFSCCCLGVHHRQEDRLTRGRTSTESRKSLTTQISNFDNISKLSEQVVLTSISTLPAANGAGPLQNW
Assay: IP-One (IPOne) orexin receptor agonist assay in CHO cells expressing human OX2R
Type: cell-based
Details: for EC50: CHO cells expressing human OX2R, IP-One IP-1 detection, 2 hours incubation, four parameter logistic fit, read-out: OX2R Potency, EC50; for % of reference agonist maximal effect: human OX2R, percentage of sample raw value/mean max effect (reference compound at 1 uM with 100% activity)
Text: The utility of the compounds in accordance with the present invention as orexin receptor OX1R and/or OX2R agonists may be readily determined without undue experimentation by methodology well known in the art. Both the OX1R and/or OX2R G-coupled protein receptors (GPCRs) couple through the Gαq signaling pathway, which ultimately promotes calcium mobilization via inositol triphosphate (IP3) production. The half-life of IP-3 is relatively short, being rapidly metabolized to inositol monophosphate (IP-1), which can be readily detected using a commercially available assay kit (IP-One; Cisbio; cat #621PAPEC) coupled with a cell line expressing the target receptor(s) of interest. The utility of the compounds in accordance with the present invention as orexin receptor OX1R and/or OX2R agonists may be determined utilizing this assay.
In a typical experiment, the OX1 and OX2 receptor agonist activity is determined in accordance with the following general experimental method. Chinese hamster ovary (CHO) cells expressing human OX1R and/or the human OX2R were grown in Iscove's modified DMEM containing glutaMAX™, 1% G418, 100 U/mL penicillin, 100 μg/mL streptomycin and 10% heat-inactivated qualified fetal bovine serum (FBS). The OX2R cells were seeded at 10,000 cells/well/50 μL and the OX1R cells were seeded at 20,000 cells/well/50 μL into 384-well white tissue culture plates (Greiner; cat #781080). All cell/media reagents were from GIBCO-Invitrogen Corp. The seeded cell plate(s) were incubated at 37° C. with 5% CO2 and 85% humidity for 20-24 hours. On the day of the assay, assay-ready compound plates were prepared using an acoustic liquid handler (ECHO; Labcyte), which dispensed sufficient volume of test compound stock (10 mM in DMSO) or 100% DMSO to prepare 10 point, ½-log dilutions in a final volume of 202.5 nL/well in all test wells of a 384-well diamond plate (Labcyte). Following completion of assay-ready plates, importantly, the next three steps were performed with minimal delay: 1) 20 μl of 1× stimulation buffer was added to the compound plate using a Multidrop Combi (small cassette, Thermo Fisher Scientific cat #24073290); 2) culture medium was removed from the cell plate using the Bluewasher plate washer (gentle spin; BlueCatBio); 3) 14 μl of compound/stimulation buffer mixture was added to the cell plate using a Bravo liquid handler (Agilent) prior to incubating cell plates at 37° C. with 5% CO2 and 85% humidity for 1 or 2 hours (OX1R and OX2R, respectively). During this incubation, IP-one detection reagents were prepared (38:1:1 lysis buffer:D2:AB-cryptate reagents). Six μL of mixed detection reagents were added to the cell plate using a Multidrop Combi (small cassette, Thermo Fisher Scientific cat #24073290) and incubated 60 minutes at room temperature in the dark. Fluorescence signal was detected using an Envision plate reader (Perkin Elmer) [LANCE/DELFIA Dual Enh (Em: APC 665; Ex: Cy5 620)].
For each compound, data were fit to a four parameter logistic fit (ActivityBase software) and the EC50 was reported as the inflection point of the resulting curve. Percent effect for each test compound was determined as the percentage of sample raw value/mean max effect, where the mean max effect was derived from the mean raw value of 32 control wells per assay plate (using Orexin A (cat #003-30) at 1 μM for human OX1R and a reference compound at 1 uM with 100% activity previously established by comparison to Orexin A for human OX2R). The intrinsic orexin receptor agonist activity of a compound which may be used in the present invention may be determined by these assays.

Row | Structure (SMILES) | EC50 | % of reference agonist maximal effect
1 | CCNC(=O)N1CCC[C@H](c2ccn[nH]2)[C@@H]1CO[C@H]1CC[C@@H](c2ccccc2)CC1 (single isomer, unassigned) [Example 1, (CIS)-N-ethyl-2-((((CIS)-4-phenylcyclohexyl)oxy)methyl)-3-(1H-pyrazol-5-yl)piperidine-1-carboxamide] | 67.3 nM | 102.6%
2 | CCNC(=O)N1CCCC(c2[nH]ncc2C)C1COC1CCC(C(C)C)CC1 (single isomer, unassigned) [Example 61, N-ethyl-2-(((4-isopropylcyclohexyl)oxy)methyl)-3-(4-methyl-1H-pyrazol-5-yl)piperidine-1-carboxamide] | 3510 nM | 87.4%
3 | CC[C@H]1C[C@@H]1C(=O)N1CCC[C@H](c2cc[nH]n2)[C@@H]1COC1CCC(c2ccccc2)CC1 (stereo in doubt) [Example 90, 5-((CIS)-1-((TRANS)-2-ethylcyclopropane-1-carbonyl)-2-((((CIS)-4-phenylcyclohexyl)oxy)methyl)piperidin-3-yl)-1H-pyrazol-2-ium 2,2,2-trifluoroacetate] | 1140 nM | 90.7%
4 | CCC(=O)N1CCC[C@H](c2cc[nH]n2)[C@@H]1CO[C@H]1CC[C@@H](C(C)C)CC1 (relative stereo) [Example 82, 1-((CIS)-2-((((CIS)-4-isopropylcyclohexyl)oxy)methyl)-3-(1H-pyrazol-3-yl)piperidin-1-yl)propan-1-one] | 5740 nM | 98.1%
5 | CCNC(=O)N1CCCC(c2[nH]ncc2C)C1COC1CCC(C(C)C)CC1 (single isomer, unassigned) [Example 58, N-ethyl-2-(((4-isopropylcyclohexyl)oxy)methyl)-3-(4-methyl-1H-pyrazol-5-yl)piperidine-1-carboxamide] | > 10000 nM | 0%
6 | CCNC(=O)N1CCC[C@H](c2ccn[nH]2)[C@@H]1CO[C@H]1CC[C@@H](C(C)C)CC1 (single isomer, unassigned) [Example 4] | 276 nM | 100.6%
7 | O=C(OCC(F)F)N1CCCC(c2ccn[nH]2)C1CO[C@H]1CC[C@@H](c2c(F)ccc(F)c2F)CC1 (stereo partly drawn) [Example 35, 2,2-Difluoroethyl 3-(1H-pyrazol-5-yl)-2-((((CIS)-4-(2,3,6-trifluorophenyl)cyclohexyl)oxy-)methyl)piperidine-1-carboxylate] | 542 nM | 97.9%
8 | CC1CC1C(=O)N1CCC[C@H](c2cc[nH]n2)[C@@H]1CO[C@H]1CC[C@@H](C(C)C)CC1 (relative stereo) [Example 76, ((CIS)-2-((((CIS)-4-isopropylcyclohexyl)oxy)methyl)-3-(1H-pyrazol-3-yl)piperidin-1-yl)(2-methylcyclopropyl)methanone] | 4130 nM | 94.6%

Next, values leading:

Row | EC50 | % of reference agonist maximal effect | Structure (SMILES)
9 | 278 nM | 99.2% | C[C@H]1C[C@H]1C(=O)N1CCC[C@H](c2cc[nH]n2)[C@@H]1COC1CCC(c2ccccc2)CC1 (stereo partly drawn) [Example 69, ((CIS)-2-methylcyclopropyl)((2R,3S)-2-((((1s,4S)-4-phenylcyclohexyl)oxy)methyl)-3-(1H-pyrazol-3-yl)piperidin-1-yl)methanone]
10 | 6980 nM | 27.6% | COC(=O)N1CCCC(c2nc(O)sc2Cl)C1COC1CCC(c2ccccc2)CC1 (single isomer, unassigned) [Example 68, Methyl 3-(5-chloro-2-hydroxythiazol-4-yl)-2-(((4-phenylcyclohexyl)oxy)methyl)piperidine-1-carboxylate]
11 | 65.5 nM | 99.9% | Cc1c[nH]nc1[C@@H]1CCCN(C(=O)C2CC2)[C@@H]1CO[C@H]1CC[C@@H](c2cccc(F)c2)CC1 (relative stereo) [Example 14]
12 | 5270 nM | 60.7% | CC[C@@H](C)OC(=O)N1CCC[C@H](c2cc[nH]n2)[C@@H]1CO[C@H]1CC[C@@H](c2ccccc2)CC1 [Example 108, (R)-sec-butyl (CIS)-2-((((CIS)-4-phenylcyclohexyl)oxy)methyl)-3-(1H-pyrazol-3-yl)piperidine-1-carboxylate]
13 | 4750 nM | 84.6% | COC(=O)N1CCC[C@H](c2n[nH]cc2C)[C@@H]1COC1CC=C(c2cccc(F)c2)CC1 (stereo partly drawn) [Example 13, methyl (CIS)-2-((((S)-3′-fluoro-2,3,4,5-tetrahydro-[1,1′-biphenyl]-4-yl)oxy)methyl)-3-(4-methyl-1H-pyrazol-3-yl)piperidine-1-carboxylate]
14 | 1980 nM | 94.8% | COC(=O)N1C[C@@H](C)C[C@H](c2ccn[nH]2)[C@@H]1CO[C@H]1CC[C@@H](c2ccccc2)CC1 (racemic) [Example 39, (+/−) methyl (2R,3S,5S)-5-methyl-2-((((CIS)-4-phenylcyclohexyl)oxy)methyl)-3-(1H-pyrazol-5-yl)piperidine-1-carboxylate]
15 | 211 nM | 98.6% | COC(=O)N1CCC[C@H](c2[nH]ncc2C)[C@@H]1CO[C@H]1CC[C@@H](c2ccccc2)CC1 (relative stereo) [Example 23, methyl (CIS)-3-(4-methyl-1H-pyrazol-5-yl)-2-((((CIS)-4-phenylcyclohexyl)oxy)methyl)piperidine-1-carboxylate]
16 | 9690 nM | 50.6% | CO[C@@H](C)COC(=O)N1CCC[C@H](c2cc[nH]n2)[C@@H]1CO[C@H]1CC[C@@H](c2ccccc2)CC1 [Example 119, (S)-2-methoxypropyl (CIS)-2-((((CIS)-4-phenylcyclohexyl)oxy)methyl)-3-(1H-pyrazol-3-yl)piperidine-1-carboxylate]
17 | 54.7 nM | 98.8% | CCNC(=O)N1CCC[C@H](c2cc[nH]n2)[C@@H]1CO[C@H]1CC[C@@H](c2ccccc2)CC1 (single isomer, unassigned) [Example 18, (CIS)-N-ethyl-2-((((CIS)-4-phenylcyclohexyl)oxy)methyl)-3-(1H-pyrazol-3-yl)piperidine-1-carboxamide]
18 | 292 nM | 100.0% | C[C@@H]1C[C@H]1C(=O)N1CCC[C@H](c2cc[nH]n2)[C@@H]1CO[C@H]1CC[C@@H](c2ccccc2)CC1 (relative stereo) [Example 70, ((TRANS)-2-methylcyclopropyl)((CIS)-2-((((CIS)-4-phenylcyclohexyl)oxy)methyl)-3-(1H-pyrazol-3-yl)piperidin-1-yl)methanone]
19 | 117 nM | 99.3% | COC(=O)N1CCC[C@H](c2n[nH]cc2C)[C@@H]1CO[C@H]1CC[C@@H](c2cccc(F)c2)CC1 (relative stereo) [Example 15, methyl (CIS)-2-((((CIS)-4-(3-fluorophenyl)cyclohexyl)oxy)methyl)-3-(4-methyl-1H-pyrazol-3-yl)piperidine-1-carboxylate]
